# Bridge positions count the residues as written; N and C are the ends. Square brackets hold non-standard residues; d marks the D form. Peptide text beside a SMILES is read from it.
# Columns and labels:
# Type in all cases: cell-based
# MC3R = target: T1, MC3R (Homo sapiens, UniProt P41968); assay: cAMP assay (EC50), MC3R; conditions: EC50(MC3R)/EC50(MC4R)
# T1 construct: host or cells: CHO-K1 (ECL assay)
# Method: (§1) Stimulation of intracellular cyclic AMP (cAMP) levels by the peptides is determined in a dose dependent manner by an electrochemiluminescence (ECL) assay (Meso Scale Discovery, Gaithersburg, MD, USA; referred to hereinafter as “MSD”). Briefly, the CHO-K1 cells stably expressing the hMC receptor subtypes are suspended in RMPI 1640® assay buffer (RMPI 1640 buffer contains 0.5 mM IBMX, and 0.2% protein cocktail (MSD blocker A)). About 7,000 cells/well of the transgenic CHO-K1 cells stably expressing hMC receptor subtypes 1, 3, 4 or 5 are dispensed in 384-well Multi-Array plates (MSD) containing integrated carbon electrodes and coated with anti-cAMP antibody. Increasing concentrations of the test compounds are added and the cells are incubated for approximately 40 minutes at 37° C. A cell lysis buffer (HEPES-buffered saline solution with MgCl2 and Triton X-100® at pH 7.3) containing 0.2% protein cocktail and 2.5 nM TAG™ ruthenium-labeled cAMP (MSD) is added and the cells are incubated for approximately 90 minutes at room temperature. At the end of the second incubation period, the read buffer (Tris-buffered solution containing an ECL co-reactant and Triton X-100 at pH 7.8) is added and the cAMP levels in the cell lysates are immediately determined by ECL detection with a Sector Imager 6000 Reader® (MSD). Data are analyzed using a computer-assisted non-linear regression analysis (XL fit; IDBS) and reported as either an EC50 value.
# (§2) Human MC4-R transfected cells are grown to confluence in 96 well plates (plating approximately 250,000 cells per well). The cells are treated in triplicate sets with 0.2 mM isobutylmethylxanthine (IBMX) and graded concentrations of the peptide or alternatively the peptide in the presence of 20 nM NDP-MSH. Cells similarly treated but with only 20 nM NDP-MSH serve as positive controls in a volume of 200 μL. A buffer blank serving as a negative control is also included. After incubation of one hour at 37° C., the cells are lysed by the addition of 50 μL of a cell lysis buffer. Total cAMP accumulated in 250 μL of this incubation medium is quantitated using a commercially available low pH cAMP assay kit (Amersham BioSciences) as per procedure specified by the kit supplier. […] The data for agonist is plotted and curve fitted to determine the EC50 value. A peptide showing accumulation in the same range as the negative control (buffer blank in the absence of alpha-MSH) is ineffective at the test concentration. A peptide showing attenuated accumulation is considered to be an antagonist if there is inhibition in cAMP when alpha-MSH is also present in the assay. Similar assay can be performed with hMC-1R, hMC-3R, and hMC-5R cells.
# (§3) A chemiluminescence readout system that uses an enzyme fragment complementation (EFC) system with β-galactosidase (β-Gal) as the functional reporter system was used. This assay system for various melanocortin receptor systems is commercially available (cAMP Hunter GPCR assay system, Discoverx Corp, Fremont, CA). This assay utilizes the β-Gal enzyme that is split into two complementary portions; EA for Enzyme Acceptor and ED for Enzyme Donor. In the assay, the ED portion fused to cAMP is made to compete with cAMP generated by cells for binding to a cAMP-specific antibody. The EA is then added to form active β-Gal with any unbound ED-cAMP.
# (§4) Briefly, 10000 cells per well are plated overnight and each well (cells incubated with 10 μl assay buffer) is then incubated with 4× serial concentration of the test compound in the cell assay buffer (5 μL) and cAMP antibody reagent (5 μL) for 30 min at 37° C. The cell lysis buffer (20 μL) containing ED-cAMP coupled enzyme fragment and the reporter substrate (Emerald II-Galacton Star, 5:1) is then added and incubated for 60 min at room temperature. Next, 20 μL of EA β-Gal fragment reagent is added.
# MC5R = target: T2, MC5R (Homo sapiens, UniProt P33032); assay: cAMP assay (EC50), MC5R; conditions: EC50(MC5R)/EC50(MC4R)
# T2 construct: host or cells: CHO-K1 (ECL assay)
# T2 sequence (P33032 whole entry): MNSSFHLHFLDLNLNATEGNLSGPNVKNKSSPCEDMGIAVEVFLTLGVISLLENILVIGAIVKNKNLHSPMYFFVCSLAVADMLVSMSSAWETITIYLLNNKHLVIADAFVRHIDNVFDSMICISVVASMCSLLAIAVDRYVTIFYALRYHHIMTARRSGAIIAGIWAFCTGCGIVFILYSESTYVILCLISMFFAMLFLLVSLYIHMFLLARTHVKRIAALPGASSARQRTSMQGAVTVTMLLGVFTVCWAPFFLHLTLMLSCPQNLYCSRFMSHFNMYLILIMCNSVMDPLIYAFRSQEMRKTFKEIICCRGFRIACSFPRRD
# Method: Stimulation of intracellular cyclic AMP (cAMP) levels by the peptides is determined in a dose dependent manner by an electrochemiluminescence (ECL) assay (Meso Scale Discovery, Gaithersburg, MD, USA; referred to hereinafter as “MSD”). Briefly, the CHO-K1 cells stably expressing the hMC receptor subtypes are suspended in RMPI 1640® assay buffer (RMPI 1640 buffer contains 0.5 mM IBMX, and 0.2% protein cocktail (MSD blocker A)). About 7,000 cells/well of the transgenic CHO-K1 cells stably expressing hMC receptor subtypes 1, 3, 4 or 5 are dispensed in 384-well Multi-Array plates (MSD) containing integrated carbon electrodes and coated with anti-cAMP antibody. Increasing concentrations of the test compounds are added and the cells are incubated for approximately 40 minutes at 37° C. A cell lysis buffer (HEPES-buffered saline solution with MgCl2 and Triton X-100® at pH 7.3) containing 0.2% protein cocktail and 2.5 nM TAG™ ruthenium-labeled cAMP (MSD) is added and the cells are incubated for approximately 90 minutes at room temperature. At the end of the second incubation period, the read buffer (Tris-buffered solution containing an ECL co-reactant and Triton X-100 at pH 7.8) is added and the cAMP levels in the cell lysates are immediately determined by ECL detection with a Sector Imager 6000 Reader® (MSD). Data are analyzed using a computer-assisted non-linear regression analysis (XL fit; IDBS) and reported as either an EC50 value. […]
# as §3, with “ED-cAMP. This active enzyme then converts a chemiluminescent substrate to generate an output signal that is recorded on a standard microplate reader.” for “ED-cAMP.”
# as §4
# MC1R = target: T3, MC1R (Homo sapiens, UniProt Q01726); assay: cAMP assay (EC50), MC1R; conditions: EC50(MC1R)/EC50(MC4R)
# T3 construct: host or cells: CHO-K1 (ECL assay)
# T3 sequence (Q01726 whole entry): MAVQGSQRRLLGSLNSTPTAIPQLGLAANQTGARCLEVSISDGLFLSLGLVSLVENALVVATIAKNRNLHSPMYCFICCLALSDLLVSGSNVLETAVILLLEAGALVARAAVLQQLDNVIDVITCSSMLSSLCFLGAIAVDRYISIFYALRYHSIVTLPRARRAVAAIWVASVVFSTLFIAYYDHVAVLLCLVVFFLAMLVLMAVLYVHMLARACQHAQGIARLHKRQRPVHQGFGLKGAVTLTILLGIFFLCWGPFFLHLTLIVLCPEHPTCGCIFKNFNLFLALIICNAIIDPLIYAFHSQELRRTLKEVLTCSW
# Method: as §1, §2, §3, §4
# T1 sequence (P41968 whole entry): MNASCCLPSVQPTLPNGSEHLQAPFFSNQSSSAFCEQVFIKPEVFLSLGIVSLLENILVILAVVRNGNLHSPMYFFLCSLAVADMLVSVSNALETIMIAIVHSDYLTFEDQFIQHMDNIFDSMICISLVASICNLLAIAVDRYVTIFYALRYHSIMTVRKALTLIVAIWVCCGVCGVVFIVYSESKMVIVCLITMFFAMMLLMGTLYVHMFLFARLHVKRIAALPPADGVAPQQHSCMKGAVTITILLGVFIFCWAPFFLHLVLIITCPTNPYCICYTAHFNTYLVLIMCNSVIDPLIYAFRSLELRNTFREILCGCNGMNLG
Ratios of EC50 values MC3/4 (MC3R),Ratios of EC50 values MC5/4 (MC5R),Ratios of EC50 values MC1/4 (MC1R),Compound
1.19,584,0.93,"CC(=O)N[C@@H](CCCNC(=N)N)C(=O)N[C@H]1CSSC[C@@H](C(N)=O)NC(=O)[C@H](Cc2c[nH]c3ccccc23)NC(=O)[C@H](CCCNC(=N)N)NC(=O)[C@@H](Cc2ccccc2)NC(=O)[C@H](Cc2c[nH]cn2)NC(=O)[C@@H](C(C)C)NC1=O [Compound 4, Ac-Arg-cyclo[Cys-D-Val-His-D-Phe-Arg-Trp-Cys]-NH2]"
>290,7,8,"CC(=O)N[C@@H](CCCNC(=N)N)C(=O)N[C@H]1CSSC[C@@H](C(N)=O)NC(=O)[C@H](Cc2c[nH]c3ccccc23)NC(=O)[C@H](CCCNC(=N)N)NC(=O)[C@@H](Cc2ccccc2)NC(=O)[C@H](Cc2c[nH]c3ccccc23)NC(=O)[C@@H](C)NC1=O [Compound 7, Ac-Arg-cyclo[Cys-D-Ala-Trp-D-Phe-Arg-Trp-Cys]-NH2] (Ac-RC[dA]W[dF]RWC-NH2; disulfide 2-8)"
5,155,40,"CC(=O)N[C@@H](CCCNC(=N)N)C(=O)N[C@H]1CSSC[C@@H](C(N)=O)NC(=O)[C@H](Cc2c[nH]c3ccccc23)NC(=O)[C@H](CCCNC(=N)N)NC(=O)[C@@H](Cc2ccccc2)NC(=O)[C@H](CCC(N)=O)NC(=O)[C@@H](C)NC1=O [Compound 8, Ac-Arg-cyclo[Cys-D-Ala-Gln-D-Phe-Arg-Trp-Cys]-NH2] (Ac-RC[dA]Q[dF]RWC-NH2; disulfide 2-8)"
30,530,90,"CC(=O)N[C@@H](CCCNC(=N)N)C(=O)N[C@H]1CSSC[C@@H](C(N)=O)NC(=O)[C@H](Cc2c[nH]c3ccccc23)NC(=O)[C@H](CCCNC(=N)N)NC(=O)[C@@H](Cc2ccccc2)NC(=O)[C@H](CC(N)=O)NC(=O)[C@@H](C)NC1=O [Compound 9, Ac-Arg-cyclo[Cys-D-Ala-Asn-D-Phe-Arg-Trp-Cys]-NH2] (Ac-RC[dA]N[dF]RWC-NH2; disulfide 2-8)"
1.45,–,2.31,"CC(=O)N[C@@H](CCCNC(=N)N)C(=O)N[C@H]1CSSC[C@@H](C(N)=O)NC(=O)[C@H](Cc2c[nH]c3ccccc23)NC(=O)[C@H](CCCNC(=N)N)NC(=O)[C@@H](Cc2ccccc2)NC(=O)[C@H](CCCNC(=N)N)NC(=O)[C@@H](C)NC1=O [Compound 10, Ac-Arg-cyclo[Cys-D-Ala-Arg-D-Phe-Arg-Trp-Cys]-NH2] (Ac-RC[dA]R[dF]RWC-NH2; disulfide 2-8)"
>22.2,–,6.67,"CC(=O)N[C@@H](CCCNC(=N)N)C(=O)N[C@H]1CSSC[C@@H](C(N)=O)NC(=O)[C@H](Cc2c[nH]c3ccccc23)NC(=O)[C@H](CCCNC(=N)N)NC(=O)[C@@H](Cc2ccccc2)NC(=O)[C@H](Cc2ccc(O)cc2)NC(=O)[C@@H](C)NC1=O [Compound 11, Ac-Arg-cyclo[Cys-D-Ala-Tyr-D-Phe-Arg-Trp-Cys]-NH2] (Ac-RC[dA]Y[dF]RWC-NH2; disulfide 2-8)"
>200,13,5,"CC(=O)N[C@@H](CCCNC(=N)N)C(=O)N[C@H]1CSSC[C@@H](C(N)=O)NC(=O)[C@H](Cc2c[nH]c3ccccc23)NC(=O)[C@H](CCCNC(=N)N)NC(=O)[C@@H](Cc2ccccc2)NC(=O)[C@@H]2CCCN2C(=O)[C@@H](C)NC1=O [Compound 13, Ac-Arg-cyclo[Cys-D-Ala-Pro-D-Phe-Arg-Trp-Cys]-NH2] (Ac-RC[dA]P[dF]RWC-NH2; disulfide 2-8)"

# Continued, molecule first:
Compound,Ratios of EC50 values MC3/4 (MC3R),Ratios of EC50 values MC5/4 (MC5R),Ratios of EC50 values MC1/4 (MC1R)
"CC(=O)N[C@@H](CCCNC(=N)N)C(=O)N[C@H]1CSSC[C@@H](C(N)=O)NC(=O)[C@H](Cc2c[nH]c3ccccc23)NC(=O)[C@H](CCCNC(=N)N)NC(=O)[C@@H](Cc2ccccc2)NC(=O)[C@H](Cc2c[nH]cn2)NC(=O)[C@@H](CC(C)C)NC1=O [Compound 1, Ac-Arg-cyclo[Cys-D-Leu-His-D-Phe-Arg-Trp-Cys]-NH2]",1.13,130,0.68
"CC[C@@H](C)[C@H]1NC(=O)[C@@H](NC(=O)[C@H](CCCNC(=N)N)NC(C)=O)CSSC[C@@H](C(N)=O)NC(=O)[C@H](Cc2c[nH]c3ccccc23)NC(=O)[C@H](CCCNC(=N)N)NC(=O)[C@@H](Cc2ccccc2)NC(=O)[C@H](Cc2c[nH]cn2)NC1=O [Compound 2, Ac-Arg-cyclo[Cys-D-Ile-His-D-Phe-Arg-Trp-Cys]-NH2]",0.96,420,0.69
"CC(=O)N[C@@H](CCCNC(=N)N)C(=O)N[C@H]1CSSC[C@@H](C(N)=O)NC(=O)[C@H](Cc2c[nH]c3ccccc23)NC(=O)[C@H](CCCNC(=N)N)NC(=O)[C@@H](Cc2ccccc2)NC(=O)[C@H](Cc2c[nH]cn2)NC(=O)[C@@H](C(C)(C)C)NC1=O [Compound 3, Ac-Arg-cyclo[Cys-D-Tie-His-D-Phe-Arg-Trp-Cys]-NH2]",1,930,1
"CC(=O)N[C@@H](CCCNC(=N)N)C(=O)N[C@H]1CSSC[C@@H](C(N)=O)NC(=O)[C@H](Cc2c[nH]c3ccccc23)NC(=O)[C@H](CCCNC(=N)N)NC(=O)[C@@H](Cc2ccccc2)NC(=O)[C@H](Cc2cncn2C)NC(=O)[C@@H](C)NC1=O [Compound 5, Ac-Arg-cyclo[Cys-D-Ala-His(3-Me)-D-Phe-Arg-Trp-Cys]-NH2]",350,945,4
"CC(=O)N[C@@H](CCCNC(=N)N)C(=O)N[C@H]1CSSC[C@@H](C(N)=O)NC(=O)[C@H](Cc2c[nH]c3ccccc23)NC(=O)[C@H](CCCNC(=N)N)NC(=O)[C@@H](Cc2ccccc2)NC(=O)[C@H](Cc2cn(C)cn2)NC(=O)[C@@H](C)NC1=O [Compound 6, Ac-Arg-cyclo[Cys-D-Ala-His(1-Me)-D-Phe-Arg-Trp-Cys]-NH2]",6,662,40

# Source: patent US12285460B2, “Pharmaceutical compositions” (RHYTHM PHARMACEUTICALS, INC., priority 2013, dated 2025)
